Like-named read-outs stand apart in the source and are kept apart here.
Key:
[1] = target: T1, CB1 receptor (Rattus norvegicus, UniProt P20272); test: Radioligand displacement in whole rat brain (CB1) membrane preparations; assay type: binding; details: Table 4, parallel synthesis analogs; for Ki: n = 1, concentration assumes 100% yield; for Max. Disp. %, 3H-CP55940 / Max. Disp. %, 3H-SR141716A / Max. Disp. %, 3H-WIN55212-2: n = 1
T1 construct: Whole rat brains or dissected regions from live CD rats; tissue Charles River or Pel-Freez Biologicals; host or cells: whole rat brain (CD rats), P2 membrane
Text: CB1 receptor affinity in rat brain.
Methods—membrane preparation from brain. The methods for tissue preparation are essentially those described by Devane et al. (1988) as modified by Compton et al. (1993) and later by Thomas et al. (1998). Whole rat brains or dissected regions from live CD rats from Charles River or Pel-Freez Biologicals (Rogers, Ark.), or human brain sections obtained from the National Disease Research Institute, were allowed to thaw to room temperature on ice. Both whole brain and dissected brain regions were used because different brain regions may express different cannabinoid receptor subtypes (Skaper et al., 1996; Thomas et al., 1998). The tissue was homogenized with a Kontes Potter-Elvehjem glass-Teflon grinding system (Fisher Scientific, Springfield, N.J.) in buffer 1 (320 mM sucrose, 2 mM EDTA, 5 mM MgCl2. The homogenate was centrifuged at 1600 g for 10 min. The supernatant was saved and combined with the two subsequent supernatants obtained from washing and 1600 g centrifugation of the P1 pellet. The combined supernatant fractions were then centrifuged at 39,000 g for 15 min. The P2 pellet was resuspended in 50 mL of buffer 2 (50 mM Tris.HCl, 2 mM EDTA, 5 mM MgCl2, pH 7.0), incubated at 37° C. for 10 min, then centrifuged at 23,000 g for 10 min. The P2 membrane was resuspended in 50 mL of buffer 2, incubated at 30° C. for 40 min, then centrifuged at 11,000 g for 15 min. The final wash-treated P2 pellet was resuspended in assay buffer 3 (50 mM Tris.HCl, 1 mM EDTA, 3 MM MgCl2, pH 7.4). Protein concentrations were determined by the method of Bradford (1976) using Coomassie brilliant blue dye (Bio-Rad, Richmond, Calif.) and BSA standards (bovine serum albumin, fatty acid free, Sigma Chemical Co., St. Louis, Mo.) prepared in assay buffer 3. The membrane preparation was divided into aliquots and stored at −80° C. For use in the binding assay, an aliquot of frozen membranes was thawed on ice and diluted to a concentration of ca. 0.2 mg/mL in assay buffer.
Methods—binding assay in brain membrane preparation. The methods for ligand binding are essentially those described by Devane et al. (1988) with the exception that we used a filtration assay. […] All cannabinoid analogs were prepared by suspension in buffer A from a 1-5 mg/mL ethanolic stock. Following incubation at 30° C. for 1 h, binding was terminated by vacuum filtration through pretreated filters in a 96-well sampling manifold (Millipore, Bedford, Mass.). Reaction vessels were washed at least 3 times with 1 mL of ice cold buffer B (50 mM Tris.HCl, 1 mg/mL BSA). The filter plates were air-dried and sealed on the bottom. Liquid scintillant was added to the wells and the top sealed. After incubating the plates in cocktail for at least 2 h, the radioactivity present was determined by liquid scintillation spectrometry. Assays were done in duplicate, and results represent the combined data of three to six independent experiments. All assays were performed in polypropylene test tubes. The GF/C glassfiber filter plates (Packard, Meriden, Conn.) were pretreated in buffer B for at least 1 h.
(§1) Data analysis. Saturation and displacement data were analyzed by unweighted nonlinear regression of receptor binding data. For displacement studies, curve-fitting and IC50 calculation were done with GraphPad Prism (GraphPad Software, Inc., San Diego, Calif.), which fits the data to one and two-site models and compares the two fits statistically. A similar approach was used for the analysis of isotherm data for calculation of Kd's. A two-site fit was accepted only if it was statistically significant (p<0.05) and the following results were not observed:
(§2) IC50 values were then converted to Ki values by reported methods (Cheng and Prusoff, 1973). The statistical evaluation of curve-fitting data allowed for a non-arbitrary conclusion based on the displacement data.

[2] = target: T2, human CB1 receptor (Homo sapiens, UniProt P21554); test: Radioligand displacement in human CB1 receptor-transfected cells (HEK-293); assay type: binding
T2 construct: expressed in transfected cells; host or cells: HEK-293
Description: Human CB1 receptor affinity. The alkyl amide analogs of the present invention were examined using transfected cell lines expressing the human CB1 receptor (Table 3).
Methods—binding assay in transfected cell lines. The methods used for performing binding assays in transfected cells expressing human CB1 or CB2 receptors are those used above. The CB1 receptor involved a HEK-293 expression system whereas the CB2 receptor was expressed in CHO-K1 cells. […] The incubations and separations were then performed as described above for rat brain membrane preparations.
as §1, §2

[3] = displacement of 3H-CP55940, whole rat brain, 3H-CP55940
[4] = displacement of 3H-SR141716A, whole rat brain, 3H-SR141716A
[5] = displacement of 3H-WIN55212-2, whole rat brain, 3H-WIN55212-2
[6] = displacement of 3H-CP55940, human CB1 transfected cells, 3H-CP55940, Table 5, parallel synthesis analogs, concentration assumes 100% yield
[7] = displacement of 3H-SR141716A, human CB1 transfected cells, 3H-SR141716A, Table 5, parallel synthesis analogs, concentration assumes 100% yield
[8] = displacement of 3H-WIN55212-2, human CB1 transfected cells, 3H-WIN55212-2, Table 5, parallel synthesis analogs, concentration assumes 100% yield
[9] = human CB1 transfected cells, 3H-CP55940, Table 5, parallel synthesis analogs
[10] = human CB1 transfected cells, 3H-SR141716A, Table 5, parallel synthesis analogs
[11] = human CB1 transfected cells, 3H-WIN55212-2, Table 5, parallel synthesis analogs

T2 sequence (P21554 whole entry): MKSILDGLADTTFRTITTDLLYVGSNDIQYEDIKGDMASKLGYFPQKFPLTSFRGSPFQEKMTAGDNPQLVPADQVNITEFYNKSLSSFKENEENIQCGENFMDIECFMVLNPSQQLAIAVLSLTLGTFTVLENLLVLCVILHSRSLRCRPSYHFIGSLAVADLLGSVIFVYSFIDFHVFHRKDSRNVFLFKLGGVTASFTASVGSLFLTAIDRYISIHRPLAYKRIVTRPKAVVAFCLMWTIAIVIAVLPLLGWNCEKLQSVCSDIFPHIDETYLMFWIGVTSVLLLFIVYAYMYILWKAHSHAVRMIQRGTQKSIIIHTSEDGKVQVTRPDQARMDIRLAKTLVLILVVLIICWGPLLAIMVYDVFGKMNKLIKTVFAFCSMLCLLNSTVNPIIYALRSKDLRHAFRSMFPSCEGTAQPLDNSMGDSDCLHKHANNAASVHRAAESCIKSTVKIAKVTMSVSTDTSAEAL
T1 sequence (P20272 whole entry): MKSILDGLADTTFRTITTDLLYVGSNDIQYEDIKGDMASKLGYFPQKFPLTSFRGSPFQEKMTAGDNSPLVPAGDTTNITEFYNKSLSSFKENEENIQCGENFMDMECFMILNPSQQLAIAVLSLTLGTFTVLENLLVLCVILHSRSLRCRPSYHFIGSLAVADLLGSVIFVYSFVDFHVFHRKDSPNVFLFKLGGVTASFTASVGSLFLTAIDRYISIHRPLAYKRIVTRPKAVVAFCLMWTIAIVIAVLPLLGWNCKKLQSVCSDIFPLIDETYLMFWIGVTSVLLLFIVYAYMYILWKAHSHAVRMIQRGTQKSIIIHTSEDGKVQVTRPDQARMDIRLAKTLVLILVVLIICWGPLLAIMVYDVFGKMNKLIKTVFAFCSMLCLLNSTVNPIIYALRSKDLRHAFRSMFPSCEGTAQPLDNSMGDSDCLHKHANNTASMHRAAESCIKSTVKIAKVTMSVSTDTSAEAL

Compound	Ki [1, 3]	Ki [1, 4]	Ki [1, 5]	Max. Disp. %, 3H-CP55940 ([1]; whole rat brain, 3H-CP55940)	Max. Disp. %, 3H-SR141716A ([1]; whole rat brain, 3H-SR141716A)	Max. Disp. %, 3H-WIN55212-2 ([1]; whole rat brain, 3H-WIN55212-2)	Ki [2, 6]	Ki [2, 7]	Ki [2, 8]	Max. Disp. %, 3H-CP55940 [2, 9]	Max. Disp. %, 3H-SR141716A [2, 10]	Max. Disp. %, 3H-WIN55212-2 [2, 11]	Max. Disp. %, 3H-CP55940 [2]	Max. Disp. %, 3H-SR141716A [2]	Max. Disp. %, 3H-WIN55212-2 [2]	Ki ([2]; displacement of 3H-CP55940)	Ki ([2]; displacement of 3H-SR141716A)	Ki ([2]; displacement of 3H-WIN55212-2)
CCCCCC(C)NC(=O)c1nn(-c2ccc(Cl)cc2Cl)c(-c2ccc(Cl)cc2)c1C (stereo not shown) [AKS-10262-1]	10.7 nM	2.6 nM	1.84 nM	98.2%	96.5%	89.0%							80.7%	95.6%	100%	11.9 nM	2.02 nM	54.6 nM
CC(C)=CCC/C(C)=C/CNC(=O)c1nn(-c2ccc(Cl)cc2Cl)c(-c2ccc(Cl)cc2)c1C [AKS-10262-2]	48.1 nM	20.1 nM	40.5 nM	84.2%	95.7%	89.0%	26.8 nM	6.8 nM	211 nM	84.2%	95.7%	78.3%						
CCCCCCCCCC(C)NC(=O)c1nn(-c2ccc(Cl)cc2Cl)c(-c2ccc(Cl)cc2)c1C (stereo not shown) [AKS-10262-3]	27.1 nM	9.7 nM	22.3 nM	83.7%	97.3%	82.4%	41.1 nM	7 nM	22.2 nM	77.7%	90.0%	76.1%						
CCCCCCC(C)NC(=O)c1nn(-c2ccc(Cl)cc2Cl)c(-c2ccc(Cl)cc2)c1C (stereo not shown) [AKS-10262-4]	26.2 nM	10.8 nM	5.8 nM	83.9%	91.3%	53.7%							79.5%	91.5%	0.0%	26.3 nM	2.8 nM	
Cc1c(C(=O)NC(C)CCCC(C)C)nn(-c2ccc(Cl)cc2Cl)c1-c1ccc(Cl)cc1 (stereo not shown) [AKS-10262-7]	8.97 nM	3.57 nM	5.76 nM	89.6%	95.1%	87.7%							82.5%	93.7%	67.9%	7.39 nM	2.1 nM	64.2 nM
COCC(C)NC(=O)c1nn(-c2ccc(Cl)cc2Cl)c(-c2ccc(Cl)cc2)c1C (stereo not shown) [AM-17]	64.4 nM	22.8 nM	22.6 nM	96.2%	94.1%	84.8%	39.8 nM	17.6 nM	30.9 nM	86.3%	98.7%	96.8%						
Cc1c(C(=O)N2CCC(O)(c3ccccc3)CC2)nn(-c2ccc(Cl)cc2Cl)c1-c1ccc(Cl)cc1 [AM-28]	113 nM	41.2 nM	69.5 nM	97.2%	97.2%	94.4%	52.1 nM	28.2 nM	56.9 nM	79.6%	99.2%	100%						

Continued, in another order:

Ki [1, 3]	Ki [1, 4]	Ki [1, 5]	Max. Disp. %, 3H-CP55940 ([1]; whole rat brain, 3H-CP55940)	Max. Disp. %, 3H-SR141716A ([1]; whole rat brain, 3H-SR141716A)	Max. Disp. %, 3H-WIN55212-2 ([1]; whole rat brain, 3H-WIN55212-2)	Ki [2, 6]	Ki [2, 7]	Ki [2, 8]	Max. Disp. %, 3H-CP55940 [2, 9]	Max. Disp. %, 3H-SR141716A [2, 10]	Max. Disp. %, 3H-WIN55212-2 [2, 11]	Compound	Max. Disp. %, 3H-CP55940 [2]	Max. Disp. %, 3H-SR141716A [2]	Max. Disp. %, 3H-WIN55212-2 [2]	Ki ([2]; displacement of 3H-CP55940)	Ki ([2]; displacement of 3H-SR141716A)	Ki ([2]; displacement of 3H-WIN55212-2)
19.6 nM	8.6 nM	25.8 nM	89.5%	95.7%	85.1%	9.6 nM	3.8 nM	78.6 nM	91.4%	95.9%	100%	CCCCCC(CC)NC(=O)c1nn(-c2ccc(Cl)cc2Cl)c(-c2ccc(Cl)cc2)c1C (stereo not shown) [AKS-10262-5]						
9.6 nM	2.3 nM	13.7 nM	91.4%	96.3%	89.9%	9.4 nM	2.2 nM	23.9 nM	86.5%	100%	78.7%	CCC(C)CC(C)NC(=O)c1nn(-c2ccc(Cl)cc2Cl)c(-c2ccc(Cl)cc2)c1C (stereo not shown) [AKS-10262-6]						
3.37 nM	2.81 nM	28.6 nM	76.6%	96.2%	94.1%	13.2 nM	5.48 nM	33.2 nM	76.8%	93.6%	91.5%	Cc1c(C(=O)NC(C)CCC(C)C)nn(-c2ccc(Cl)cc2Cl)c1-c1ccc(Cl)cc1 (stereo not shown) [AKS-10262-8]						
19.9 nM	5.52 nM	10.3 nM	90.1%	96.0%	81.1%	25.2 nM	3.28 nM	16.9 nM	88.1%	96.7%	77.3%	Cc1c(C(=O)NCCC(c2ccccc2)c2ccccc2)nn(-c2ccc(Cl)cc2Cl)c1-c1ccc(Cl)cc1 [AKS-10262-9]						
18.4 nM	2.7 nM	10.1 nM		95.9%	86.1%	22.9 nM	2.38 nM	70.2 nM	94.8%	100%	65.5%	Cc1c(C(=O)NC(C)Cc2ccc(Cl)cc2)nn(-c2ccc(Cl)cc2Cl)c1-c1ccc(Cl)cc1 (stereo not shown) [AKS-10262-10]						
